The values below come from patent US12410179B2, “Modulators of TNF alpha activity and uses thereof” (RayThera, Inc., priority 2023, dated 2025).

For the assay, the target named is TNFα (Homo sapiens, UniProt P01375). Description: HEK-Blue hTNFα reporter assay. Type of assay: cell-based. The arrangement: purchased R&D biosystem (R&D Systems) 210-TA-020/CF. Conditions: HEK-Blue hTNFα reporter cells, SEAP readout; read-out: IC50 Range. In short, it runs like this:
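IC50 from 4-parameter regression of % inhibition, with OD620 of secreted SEAP (QUANTI-Blue, 1 h) referenced to cells with and without hTNFα. HEK-Blue TNFα reporter cells were exposed 24 h to compound premixed 1 h with hTNFα ([…]).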

Sequence of TNFα (P01375 77-233 limits assumed): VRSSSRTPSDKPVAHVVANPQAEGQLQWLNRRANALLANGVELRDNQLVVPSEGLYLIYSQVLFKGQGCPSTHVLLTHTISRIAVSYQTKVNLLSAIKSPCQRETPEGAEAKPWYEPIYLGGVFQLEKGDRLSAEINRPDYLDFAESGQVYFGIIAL

In general, IC50 refers to the concentration that gives 50% inhibition. In the case of `CN1C(=O)c2cccc(OC(F)F)c2[C@H]2C[C@@H]1c1nn3ccc(-c4cnc([C@H](O)C(F)F)nc4)cc3c12` [Example 105], the IC50 is less than 25 nM.

Take `CN1C(=O)c2cccc(OC(F)F)c2[C@H]2C[C@@H]1c1nn3ccc(-c4cnc([C@@H](O)C(F)F)nc4)cc3c12` [Example 106]: the half-inhibitory concentration (IC50) was less than 25 nM. Then `CN1C(=O)c2cccc(OC(F)F)c2[C@H]2C[C@@H]1c1nn3ccc(-c4ncc([C@@H](O)C5COC5)cn4)cc3c12` [Example 107], with less than 25 nM; and `CN1C(=O)c2cccc(OC(F)F)c2[C@H]2C[C@@H]1c1nn3ccc(-c4ncc([C@H](O)C5COC5)cn4)cc3c12` [Example 108], with less than 25 nM; and `CN1C(=O)c2cccc(OC(F)F)c2[C@H]2C[C@@H]1c1nn3cc(F)c(-c4cnc([C@]5(O)C[C@@](C)(O)C5)nc4)cc3c12` [Example 109], with less than 25 nM. As for `CN1C(=O)c2cccc(OC(F)F)c2[C@H]2C[C@@H]1c1nn3ccc(-c4cnc([C@]5(O)CC[C@H](O)C5)nc4)cc3c12` [Example 111], the IC50 was less than 25 nM. Next, `CN1C(=O)c2cccc(OC(F)F)c2[C@H]2C[C@@H]1c1nn3ccc(-c4cnc([C@@]5(O)CC[C@@H](O)C5)nc4)cc3c12` [Example 112]: less than 25 nM; `[2H]C([2H])([2H])N1C(=O)c2cccc(OC(F)F)c2[C@H]2C[C@@H]1c1nn3cc(F)c(-c4ccc(P(C)(C)=O)nc4)cc3c12` [Example 113]: less than 25 nM. Then `CN1C(=O)c2cccc(OC(F)F)c2[C@H]2C[C@@H]1c1nn3cc(F)c(-c4cnc([C@](C)(O)CO)nc4)cc3c12` [Example 114], with less than 25 nM; and `CN1C(=O)c2cccc(OC(F)F)c2[C@H]2C[C@@H]1c1nn3cc(F)c(-c4cnc([C@@](C)(O)CO)nc4)cc3c12` [Example 115], with less than 25 nM. On to `CN1C(=O)c2cccc(OC(F)F)c2[C@H]2C[C@@H]1c1nn3cc(F)c(-c4cnc([C@@](C)(O)CC#N)nc4)cc3c12` [Example 116], for which the concentration for half-maximal inhibition (IC50) is less than 25 nM. Then `CN1C(=O)c2cccc(OC(F)F)c2[C@H]2C[C@@H]1c1nn3cc(F)c(-c4cnc([C@](C)(O)CC#N)nc4)cc3c12` [Example 117], with less than 25 nM; and `C[C@H](O)[C@@H](O)c1ncc(-c2ccn3nc4c(c3c2)[C@@H]2C[C@H]4N(C)C(=O)c3cccc(OC(F)F)c32)cn1` [Example 118], with less than 25 nM; and `C[C@@H](O)[C@H](O)c1ncc(-c2ccn3nc4c(c3c2)[C@@H]2C[C@H]4N(C)C(=O)c3cccc(OC(F)F)c32)cn1` [Example 119], with less than 25 nM. On to `CN1C(=O)c2cccc(OC(F)F)c2[C@H]2C[C@@H]1c1nn3cc(F)c(-c4ccc([S@@](=N)(=O)C5CC5)nc4)cc3c12` [Example 120], for which the IC50 is less than 25 nM. Then `CN1C(=O)c2cccc(OC(F)F)c2[C@H]2C[C@@H]1c1nn3ccc(-c4ccc(P(C)(C)=O)cn4)cc3c12` [Example 122], with less than 25 nM; and `CN1C(=O)c2cccc(OC(F)F)c2[C@H]2C[C@@H]1c1nn3ccc(-c4ccc(P(C)(C)=O)cc4)cc3c12` [Example 123], with less than 25 nM. Next, `[2H]C([2H])([2H])N1C(=O)c2cccc(OC(F)F)c2[C@H]2C[C@@H]1c1nn3ccc(-c4ccc(S(=N)(=O)CC)nc4)cc3c12` (stereo partly drawn) [Example 124]: less than 25 nM; `CN1C(=O)c2cccc(OC(F)F)c2[C@H]2C[C@@H]1c1nn3cc(F)c(-c4cnc([C@]5(O)C[C@@H](O)C5)nc4)cc3c12` [Example 125]: less than 25 nM; `CN1C(=O)c2cccc(OC(F)F)c2[C@H]2C[C@@H]1c1nn3ccc(-c4cnc(S(=N)(=O)C5CC5)cn4)cc3c12` (stereo partly drawn) [Example 126]: less than 25 nM. Then `CP(C)(=O)c1ccc(-c2ccn3nc4c(c3c2)[C@@H]2C[C@H]4NC(=O)c3cccc(OC(F)F)c32)cc1F` [Example 127], with less than 25 nM; and `CN1C(=O)c2cccc(OC(F)F)c2[C@H]2C[C@@H]1c1nn3cc(F)c(-c4cnc(P(C)(C)=O)cn4)cc3c12` [Example 128], with less than 25 nM; and `CN1C(=O)c2cccc(OC(F)F)c2[C@H]2C[C@@H]1c1nn3ccc(-c4ncc([C@@H](O)[C@@H]5CCO5)cn4)cc3c12` [Example 129], with less than 25 nM. For `CN1C(=O)c2cccc(OC(F)F)c2[C@H]2C[C@@H]1c1nn3ccc(-c4ncc([C@@H](O)[C@H]5CCO5)cn4)cc3c12` [Example 130], the IC50 was less than 25 nM. Next, `CN1C(=O)c2cccc(OC(F)F)c2[C@H]2C[C@@H]1c1nn3ccc(-c4ncc([C@H](O)[C@@H]5CCO5)cn4)cc3c12` [Example 131]: less than 25 nM; `CN1C(=O)c2cccc(OC(F)F)c2[C@H]2C[C@@H]1c1nn3ccc(-c4ncc([C@H](O)[C@H]5CCO5)cn4)cc3c12` [Example 132]: less than 25 nM; `CN1C(=O)c2cccc(OC(F)F)c2[C@H]2C[C@@H]1c1nn3ccc(-c4cnc([C@H](O)C(C)(C)O)nc4)cc3c12` [Example 133]: less than 25 nM. Then `CN1C(=O)c2cccc(OC(F)F)c2[C@H]2C[C@@H]1c1nn3ccc(-c4cnc([C@@H](O)C(C)(C)O)nc4)cc3c12` [Example 134], with less than 25 nM; and `C[C@H](O)[C@H](O)c1ncc(-c2ccn3nc4c(c3c2)[C@@H]2C[C@H]4N(C)C(=O)c3cccc(OC(F)F)c32)cn1` [Example 135], with less than 25 nM; and `CN1C(=O)c2cccc(OC(F)F)c2[C@H]2C[C@@H]1c1nn3ccc(-c4cnc([C@@H](O)C5COC5)nc4)cc3c12` [Example 136], with less than 25 nM. Then `CN1C(=O)c2cccc(OC(F)F)c2[C@H]2C[C@@H]1c1nn3ccc(-c4cnc([C@H](O)C5COC5)nc4)cc3c12` [Example 137], with less than 25 nM; and `CN1C(=O)c2cccc(OC(F)F)c2[C@H]2C[C@@H]1c1nn3ccc(-c4ncc(P(C)(C)=O)cn4)cc3c12` [Example 138], with less than 25 nM; and `CN1C(=O)c2cccc(OC(F)F)c2[C@H]2C[C@@H]1c1nn3ccc(-c4cnc([C@]5(O)C[C@](C)(O)C5)nc4)cc3c12` [Example 139], with less than 25 nM. With `O=C1N[C@@H]2C[C@H](c3c(OC(F)F)cccc31)c1c2nn2ccc(-c3cnc(C4(O)CCC4)nc3)cc12` [Example 140], the IC50 is less than 25 nM.

Regarding `CN1C(=O)c2cccc(OC(F)F)c2[C@H]2C[C@@H]1c1nn3ccc(-c4ncc([C@]5(O)C[C@@](C)(O)C5)cn4)cc3c12` [Example 142], the concentration for half-maximal inhibition (IC50) was less than 25 nM. Then `CN1C(=O)c2cccc(OC(F)F)c2[C@H]2C[C@@H]1c1nn3ccc(-c4cnc(N5CCNCC5)nc4)cc3c12` [Example 143], with less than 25 nM; and `CN1C(=O)c2cccc(OC(F)F)c2[C@H]2C[C@@H]1c1nn3cnc(-c4ccc(P(C)(C)=O)c(F)c4)cc3c12` [Example 144], with less than 25 nM. Then `CN1C(=O)c2cccc(OC(F)F)c2[C@H]2C[C@@H]1c1nn3ccc(-c4cnc(N5CCN(CCO)CC5)nc4)cc3c12` [Example 145], with less than 25 nM; and `CN1C(=O)c2cccc(OC(F)F)c2[C@H]2C[C@@H]1c1nn3cnc(-c4cnc(C5(N)CC(F)(F)C5)nc4)cc3c12` [Example 146], with less than 25 nM. Then `Cc1nc([C@]2(O)C[C@@](C)(O)C2)ncc1-c1ccn2nc3c(c2c1)[C@@H]1C[C@H]3N(C)C(=O)c2cccc(OC(F)F)c21` [Example 147], with less than 25 nM; and `CC(=O)N1CCN(c2ncc(-c3ccn4nc5c(c4c3)[C@@H]3C[C@H]5N(C)C(=O)c4cccc(OC(F)F)c43)cn2)CC1` [Example 148], with less than 25 nM; and `O=C1N[C@@H]2C[C@H](c3c(OC(F)F)cccc31)c1c2nn2ccc(-c3cnc(C4(O)CC(F)(F)C4)nc3)cc12` [Example 150], with less than 25 nM.

In the case of `C[C@@](O)(c1ncc(-c2ccn3nc4c(c3c2)[C@@H]2C[C@H]4NC(=O)c3cccc(OC(F)F)c32)cn1)C(F)F` [Example 151], the IC50 was less than 25 nM. Then `C[C@](O)(c1ncc(-c2ccn3nc4c(c3c2)[C@@H]2C[C@H]4NC(=O)c3cccc(OC(F)F)c32)cn1)C(F)F` [Example 152], with less than 25 nM. Then `[2H]C([2H])([2H])N1C(=O)c2cccc(OC(F)F)c2[C@H]2C[C@@H]1c1nn3ccc(-c4cnc(C5(O)COC5)nc4)cc3c12` [Example 153], with less than 25 nM. As for `CN1C(=O)c2cccc(OC(F)F)c2[C@H]2C[C@@H]1c1nn3ccc(-c4ccc([C@]5(N)C[C@@](C)(C(=O)O)C5)c(F)c4)cc3c12` [Example 154], the 50% inhibitory concentration (IC50) is less than 25 nM. Then `CN1CCN(c2ncc(-c3ccn4nc5c(c4c3)[C@@H]3C[C@H]5N(C)C(=O)c4cccc(OC(F)F)c43)cn2)CC1` [Example 155], with less than 25 nM.

Turning to `CN1C(=O)c2cccc(OC(F)F)c2[C@H]2C[C@@H]1c1nn3ccc(-c4cnc(N5CCC(O)CC5)nc4)cc3c12` [Example 156], the half-inhibitory concentration (IC50) was less than 25 nM.

Take `CN1C(=O)c2cccc(OC(F)F)c2[C@H]2C[C@@H]1c1nn3ccc(-c4cnc(N5CCOCC5)nc4)cc3c12` [Example 158]: the IC50 was less than 25 nM.

Take `CN1C(=O)c2ccnc(OC(F)F)c2[C@H]2C[C@@H]1c1nn3cc(F)c(-c4ccc(P(C)(C)=O)c(F)c4)cc3c12` [Example 159]: the half-inhibitory concentration (IC50) is less than 25 nM. Then `CN1C(=O)c2cccc(OC(F)F)c2[C@H]2C[C@@H]1c1nn3ccc(-c4cnc([C@]5(O)C[C@@](C)(C(N)=O)C5)nc4)cc3c12` [Example 160], with less than 25 nM. Next, `CN1C(=O)c2cccc(OC(F)F)c2[C@H]2C[C@@H]1c1nn3cc(F)c(-c4ccc(P5(=O)CCOCC5)nc4)cc3c12` [Example 161]: less than 25 nM. Regarding `O=C1N[C@@H]2C[C@H](c3c(OC(F)F)cccc31)c1c2nn2ccc(-c3cnc(N4CCOCC4)nc3)cc12` [Example 162], the IC50 is less than 25 nM. Regarding `C[C@@](O)(CC#N)c1ncc(-c2ccn3nc4c(c3c2)[C@@H]2C[C@H]4NC(=O)c3cccc(OC(F)F)c32)cn1` [Example 163], the IC50 is less than 25 nM.
